Test: xn = mol fraction of the nth substance listed
Conditions: 101 kPa, Liquid; for viscosity: Capillary tube (Ostwald / Ubbelohde) method; for mass density: Vibrating tube method

CCCC(C)O (stereo not given) [pentan-2-ol] + CC#N
Conditions	mass density, 293.15 K [kg/m3]	mass density, 298.15 K [kg/m3]	mass density, 303.15 K [kg/m3]	viscosity, 293.15 K [mPa·s]	viscosity, 298.15 K [mPa·s]	viscosity, 303.15 K [mPa·s]
x2 = 0	809.29	805.24	801.13	4.298	3.478	–
x2 = 0.116	806.75	802.61	798.39	2.544	2.17	1.474
x2 = 0.1727	805.46	801.25	796.93	2.093	1.804	1.288
x2 = 0.2827	802.79	798.55	794.05	1.534	1.362	1.069
x2 = 0.3546	801.01	796.68	792.08	1.262	1.125	0.9367
x2 = 0.4458	798.66	794.17	789.54	1.008	0.9044	0.7975
x2 = 0.5366	796.26	791.6	786.91	0.81	0.7392	0.6615
x2 = 0.6488	793.09	788.28	783.41	0.6391	0.5884	0.5492
x2 = 0.7671	789.52	784.54	779.52	0.5048	0.4715	0.4429
x2 = 0.8793	786.03	780.88	775.68	0.4119	0.391	0.3617
x2 = 0.9578	783.59	778.28	772.96	0.3705	0.3537	0.3311

Source: the NIST ThermoML archive (doi:10.1016/j.tca.2009.06.015)
